For data set [1], the target named is human active MMP-9 (Homo sapiens, UniProt P14780). The data set is described as follows: fluorometric in vitro MMP inhibition assay, MMP-9. In kind it is biochemical. The procedure:
(§1) The MMP inhibition potencies of the barbituric acid derivatives 5a, 5b, 6, 9 and 10 were measured in fluorometric in vitro inhibition assays as described previously.
(§2) An aliquot of substrate (10 μL of a 50 μM solution) was then added to 90 μL of the preincubated MMP/inhibitor mixture, and the fluorescence was determined at 37 °C by following product release with time. The fluorescence changes were monitored using a Fusion Universal Microplate Analyzer (Packard Bioscience, Boston, MA, USA) with excitation and emission wavelengths set to 330 and 390 nm, respectively. Reaction rates were measured from the initial 10 min of the reaction profile where product release was linear with time and plotted as a function of inhibitor dose. From the resulting inhibition curves, the IC50 values for each inhibitor were calculated by non-linear regression analysis, performed using the Grace 5.1.8 software (Linux).

The target in data set [2] is T1, human active MMP-2 (Homo sapiens, UniProt P08253).
T1 sequence (P08253 110-660): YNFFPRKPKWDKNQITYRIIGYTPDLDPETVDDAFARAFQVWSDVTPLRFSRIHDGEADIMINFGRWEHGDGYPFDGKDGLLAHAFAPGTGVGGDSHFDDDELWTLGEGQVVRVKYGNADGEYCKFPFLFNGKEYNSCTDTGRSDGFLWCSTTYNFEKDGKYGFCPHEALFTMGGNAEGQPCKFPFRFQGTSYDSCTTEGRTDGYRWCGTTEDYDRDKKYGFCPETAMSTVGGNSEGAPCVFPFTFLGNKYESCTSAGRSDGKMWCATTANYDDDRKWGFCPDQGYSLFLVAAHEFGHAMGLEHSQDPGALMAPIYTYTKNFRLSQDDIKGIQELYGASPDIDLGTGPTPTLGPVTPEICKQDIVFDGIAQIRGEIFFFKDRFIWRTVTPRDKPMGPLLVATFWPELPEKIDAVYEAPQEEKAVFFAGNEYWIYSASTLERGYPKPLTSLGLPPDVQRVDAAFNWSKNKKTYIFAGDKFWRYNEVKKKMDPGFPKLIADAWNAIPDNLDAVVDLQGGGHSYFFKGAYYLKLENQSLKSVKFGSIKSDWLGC
In words: fluorometric in vitro MMP inhibition assay, MMP-2. In kind it is biochemical. On the procedure:
as §1, §2

Data set [3] addresses human active MMP-8 (Homo sapiens, UniProt P22894). The data set is described as follows: fluorometric in vitro MMP inhibition assay, MMP-8. The format is biochemical. The procedure:
as §1, §2

Data set [4] has as its target human active MMP-13 (Homo sapiens, UniProt P45452). The data set is described as follows: fluorometric in vitro MMP inhibition assay, MMP-13. The format is biochemical. The procedure: as §1, §2
Data set [5] concerns the target human active MMP-14 (Homo sapiens, UniProt P50281). In words: fluorometric in vitro MMP inhibition assay, MMP-14. In kind it is biochemical. The procedure: as §1, §2
The nature of data set [6]: calculated logP/logD (ACD/Chemsketch ACD/Labs 6.00). The note with it: relative to 12.
Where [7] appears, read: IC50 MMP-9, mean ± SD of three assays.
The mark [8] stands for this setting: IC50 MMP-2, mean ± SD of three assays.
The mark [9] stands for this setting: IC50 MMP-9 (range given jointly for MMP-2 and -9), summary of Table 1.
Setting [10] is: IC50 MMP-2 (range given jointly for MMP-2 and -9), summary of Table 1.

The structures appear in SMILES notation.

Chain of human active MMP-9 (P14780 107-707 limits assumed): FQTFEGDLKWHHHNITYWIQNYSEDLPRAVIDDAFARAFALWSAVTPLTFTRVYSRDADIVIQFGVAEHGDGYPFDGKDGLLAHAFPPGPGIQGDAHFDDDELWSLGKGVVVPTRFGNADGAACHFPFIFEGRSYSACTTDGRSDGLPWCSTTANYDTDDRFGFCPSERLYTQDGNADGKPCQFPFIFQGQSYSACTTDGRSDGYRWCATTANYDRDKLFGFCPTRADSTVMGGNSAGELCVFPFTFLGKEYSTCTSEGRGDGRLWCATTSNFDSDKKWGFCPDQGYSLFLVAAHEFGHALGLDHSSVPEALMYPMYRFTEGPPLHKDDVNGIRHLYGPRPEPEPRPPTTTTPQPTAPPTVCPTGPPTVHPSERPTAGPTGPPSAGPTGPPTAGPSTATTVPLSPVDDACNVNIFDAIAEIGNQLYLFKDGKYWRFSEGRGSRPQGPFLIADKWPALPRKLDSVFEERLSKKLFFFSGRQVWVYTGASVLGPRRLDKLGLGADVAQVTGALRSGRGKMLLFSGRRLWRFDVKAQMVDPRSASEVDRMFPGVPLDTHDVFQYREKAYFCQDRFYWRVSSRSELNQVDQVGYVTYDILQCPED
Chain of human active MMP-8 (P22894 101-467): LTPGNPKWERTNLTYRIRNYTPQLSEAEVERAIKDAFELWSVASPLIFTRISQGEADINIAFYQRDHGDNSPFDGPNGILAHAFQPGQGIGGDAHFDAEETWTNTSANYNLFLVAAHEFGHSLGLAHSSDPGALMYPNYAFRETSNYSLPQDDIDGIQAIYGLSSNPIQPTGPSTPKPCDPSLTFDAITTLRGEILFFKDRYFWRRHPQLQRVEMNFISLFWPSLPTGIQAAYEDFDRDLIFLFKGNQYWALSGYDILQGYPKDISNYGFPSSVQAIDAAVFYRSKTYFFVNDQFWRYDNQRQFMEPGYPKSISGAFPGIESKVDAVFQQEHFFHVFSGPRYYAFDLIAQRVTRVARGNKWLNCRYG

A word on the IC50: it is the concentration needed to halve the response being measured. Low readings indicate greater potency, high ones weaker potency. A word on the melting point: it is the temperature of the solid-liquid transition. `O=C1NC(=O)C(c2ccc(I)cc2)(N2CCN(CCO)CC2)C(=O)N1` [5a, 5-[4-(2-Hydroxyethyl)piperazin-1-yl]-5-(4-iodophenyl)pryrimidine-2,4,6-trione] registered a melting point of 168 to 172 °C. This molecule had a half-inhibitory concentration (IC50) in data set [1] (setting [7]) of 0.55 ± 0.18 µM. The molecule also displayed an IC50 in data set [2] (setting [8]) of 0.01 ± 0.003 µM.

In the case of `O=C1NC(=O)C(c2ccc(Oc3ccc(I)cc3)cc2)(N2CCN(CCOCCOCCOCCF)CC2)C(=O)N1` [compound 10, 5-(4-(2-(2-(2-(2-Fluoroethoxy)ethoxy)ethoxy)ethyl)piperazin-1-yl)-5-(4-(4-iodophenoxy)phenyl)-pyrimidine-2,4,6-trione], the melting point was 176 to 177 °C. Half-maximal inhibition in data set [1] (setting [7]) (IC50) required 0.017 ± 0.005 µM. Also, the IC50 in data set [2] (setting [8]) stood at 0.023 ± 0.005 µM. Besides, the IC50 in data set [3] came to 0.146 ± 0.048 µM. The molecule also registered an IC50 in data set [4] of 0.028 ± 0.011 µM.

In the case of `O=C(O)CCN1CCN(C2(c3ccc(I)cc3)C(=O)NC(=O)NC2=O)CC1` [5b, 5-[4-(2-Carboxyethyl)piperazin-1-yl]-5-(4-iodophenyl)pyrimidine-2,4,6-trione], the melting point fell in the range of 139 to 142 °C. Moreover, the IC50 in data set [1] (setting [9]) lay within 0.67 to 1.6 µM. Besides, the IC50 in data set [1] (setting [7]) was determined as 1.6 ± 0.6 µM. For the same molecule, the IC50 in data set [2] (setting [10]) lay within 0.67 to 1.6 µM. Moreover, the IC50 in data set [2] (setting [8]) was 1.2 ± 0.34 µM.

Turning to `O=C1NC(=O)C(c2ccc(O)c(I)c2)(N2CCN(CCO)CC2)C(=O)N1` [compound 6, 5-(4-Hydroxy-3-iodophenyl)-5-[4-(2-hydroxyethyl)piperazin-1-yl]pryrimidine-2,4,6-trione], the melting point is 168 to 170 °C (dec.). In data set [1] (setting [9]), this molecule registered a half-maximal inhibitory concentration (IC50) of 0.67 to 1.6 µM. In data set [1] (setting [7]), this molecule returned an IC50 of 1.3 ± 0.32 µM. In data set [2] (setting [10]), this molecule displayed an IC50 of 0.67 to 1.6 µM. Further, the IC50 in data set [2] (setting [8]) was 0.67 ± 0.21 µM.

On to `O=C(O)CCN1CCN(C2(c3ccc(Oc4ccc(I)cc4)cc3)C(=O)NC(=O)NC2=O)CC1` [compound 9, 5-[4-(2-Carboxyethyl)piperazin-1-yl]-5-[4-(4-iodophenoxy)phenyl]pyrimidine-2,4,6-trione], for which the melting point was 236 to 242 °C (dec.). The IC50 in data set [5] was found to be 0.049 µM. The “increased water solubility compared to 12, inferred from clogD shift” value in data set [6] is reported as “approximately 400 fold”. For the same molecule, the IC50 in data set [1] (setting [7]) amounted to 0.0013 ± 0.0002 µM. The molecule also returned an IC50 in data set [2] (setting [8]) of 0.029 ± 0.002 µM. Besides, in data set [3], it took 1.17 ± 0.08 µM to reach half-maximal inhibition (IC50). 0.362 ± 0.024 µM corresponded to half-maximal inhibition in data set [4] (IC50).

The record behind these values is publication PMC5490406, “Syntheses of Radioiodinated Pyrimidine-2,4,6-Triones as Potential Agents for Non-Invasive Imaging of Matrix Metalloproteinases” (Pharmaceuticals, 2017).
